Our source for the IC50 values is patent publication US7994172B2, “[1H-pyrazolo[3, 4-D]pyrimidin-4-yl]-piperidine or -piperazine compounds as serine-theoronine kinase modulators (P70s6k, Atk1 and Atk2) for the treatment of immunological, inflammatory and proliferative diseases” (Exelixis, Inc., priority 2004, dated 2011).

A value given as a limit tells only on which side of the number the result lay.

Holding throughout (type): biochemical
Test [1] has as its target T1, human Akt2 kinase (kinase domain residues K146-R480) (Homo sapiens, UniProt P31751).
T1 construct: human Akt2 kinase domain residues K146-R480; made in house
Kind of test: Akt2 kinase assay, Luciferase-Coupled Chemiluminescent Kinase assay (LCCA). The settings on record: 2 μM ATP, 10 nM Akt2; read-out: Akt-2 inhibition IC50. The method, then:
Kinase activity and compound inhibition are investigated using one or more of the three assay formats described below. The ATP concentrations for each assay are selected to be close to the Michaelis-Menten constant (KM) for each individual kinase. Dose-response experiments are performed at 10 different inhibitor concentrations in a 384-well plate format. The data are fitted to four-parameter equation (2) below; where Y is the observed signal, X is the inhibitor concentration, Min is the background signal in the absence of enzyme (0% enzyme activity), Max is the signal in the absence of inhibitor (100% enzyme activity), IC50 is the inhibitor concentration at 50% enzyme inhibition and H represents the empirical Hill's slope to measure the cooperativity. Typically H is close to unity. Y=Min+(Max−Min)/(1+(X/IC50)^H) Equation (2) p70S6 Kinase Assay
Biochemical activity of Akt2 kinase was assessed using a Luciferase-Coupled Chemiluminescent Kinase assay (LCCA) format. Kinase activity was measured as the percent ATP remaining following the kinase reaction. Remaining ATP was detected by luciferase-luciferin-coupled chemiluminescence. Specifically, the reaction was initiated by mixing test compounds, 2 μM ATP, 5 μM crosstide peptide and 10 nM Akt2 (baculovirus expressed human Akt2 kinase domain residues K146-R480) in a 20 uL assay buffer (20 mM Tris-HCL pH 7.5, 10 mM MgCl2, 0.03% Triton X-100, 1 mM DTT, 3 mM MnCl2). The mixture is incubated at ambient temperature for 2 hours after which 20 μL luciferase-luciferin mix is added and the chemiluminescent signal read using a Wallac Victor2 reader. The luciferase-luciferin mix consists of 50 mM HEPES, pH 7.8, 8.5 μg/mL oxalic acid (pH 7.8), 5 (or 50) mM DTT, 0.4% Triton X-100, 0.25 mg/mL coenzyme A, 63 uM AMP, 28 μg/mL luciferin and 40,000 units/mL luciferase.

Test [2] deals with T2, human p70S6 kinase (p70S6K, kinase domain residues 1-421, T412E mutation) (Homo sapiens, UniProt P23443, T412E).
T2 construct: human p70S6 kinase domainresidues 1-421, containing a T412E mutation; made in house
T2 sequence (P23443 1-421 T412E): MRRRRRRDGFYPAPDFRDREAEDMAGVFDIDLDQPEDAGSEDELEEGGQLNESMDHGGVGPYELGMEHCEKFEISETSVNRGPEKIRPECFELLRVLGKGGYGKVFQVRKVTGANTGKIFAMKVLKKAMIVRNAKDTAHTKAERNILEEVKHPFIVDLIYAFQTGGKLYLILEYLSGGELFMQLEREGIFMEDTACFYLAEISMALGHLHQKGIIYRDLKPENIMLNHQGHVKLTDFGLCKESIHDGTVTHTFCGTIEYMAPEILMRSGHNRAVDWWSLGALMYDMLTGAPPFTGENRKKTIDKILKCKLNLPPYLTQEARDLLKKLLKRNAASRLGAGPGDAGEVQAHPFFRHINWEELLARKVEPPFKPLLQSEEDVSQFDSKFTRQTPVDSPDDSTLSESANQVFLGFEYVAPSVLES
Put plainly: p70S6 kinase assay, Luciferase-Coupled Chemiluminescent Kinase assay (LCCA). The settings on record: 5 μM ATP, 12 nM p70S6K; read-out: p70S6K inhibition IC50. In short, it runs like this:
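Baculovirus-expressed kinase domain (12 nM) reacted 2 h at ambient temperature with 5 μM ATP and 5 μM RRRLSSLRA peptide. Buffer was Tris pH 7.5 with MgCl2, MnCl2, DTT and Triton X-100. Remaining ATP was read by luciferase-luciferin chemiluminescence. IC50 came from 10-point dose-response with a four-parameter Hill fit.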

The target of test [3] is T3, human Akt1 kinase (kinase domain residues R144-A480, activated with PDK1) (Homo sapiens, UniProt P31749).
T3 construct: made in house
T3 sequence (P31749 144-480): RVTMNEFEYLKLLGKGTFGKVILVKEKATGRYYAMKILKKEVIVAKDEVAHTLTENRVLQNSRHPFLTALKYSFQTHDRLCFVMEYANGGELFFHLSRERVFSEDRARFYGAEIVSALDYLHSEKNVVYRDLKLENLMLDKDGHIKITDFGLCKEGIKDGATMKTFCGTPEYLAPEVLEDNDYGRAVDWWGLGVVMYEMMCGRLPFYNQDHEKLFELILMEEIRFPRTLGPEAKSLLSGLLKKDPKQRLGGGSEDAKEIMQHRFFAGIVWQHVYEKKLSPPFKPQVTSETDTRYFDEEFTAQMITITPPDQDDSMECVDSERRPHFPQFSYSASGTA
Put plainly: Akt1 kinase assay, Luciferase-Coupled Chemiluminescent Kinase assay (LCCA). Particulars: 1 μM ATP, 1.3 nM Akt1; read-out: Akt-1 inhibition IC50. In short, it runs like this: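 Baculovirus-expressed PDK1-activated Akt1 kinase domain (R144-A480), 1.3 nM, with 5 μM crosstide and 1 μM ATP in Tris pH 7.5 with MgCl2/MnCl2, 3 h at ambient temperature. Remaining ATP read by luciferase-luciferin chemiluminescence; 10-point IC50 from four-parameter fit.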

T1 sequence (P31751 146-480): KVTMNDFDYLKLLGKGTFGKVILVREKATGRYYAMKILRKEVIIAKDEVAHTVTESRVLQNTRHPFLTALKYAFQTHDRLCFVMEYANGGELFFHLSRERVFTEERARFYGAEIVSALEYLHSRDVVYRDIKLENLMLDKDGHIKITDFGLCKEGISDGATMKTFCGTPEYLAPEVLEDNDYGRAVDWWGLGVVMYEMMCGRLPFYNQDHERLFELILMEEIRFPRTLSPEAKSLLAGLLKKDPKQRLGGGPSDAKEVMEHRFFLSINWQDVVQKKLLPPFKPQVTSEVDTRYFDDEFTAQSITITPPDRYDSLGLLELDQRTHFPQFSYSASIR

Regarding `Clc1ccc(-c2ccc(CN3CCN(c4ncnc5[nH]nc(Br)c45)CC3)o2)cc1` [Entry 64, 3-bromo-4-(4-{[5-(4-chlorophenyl)furan-2-yl]methyl}piperazin-1-yl)-1H-pyrazolo[3,4-d]pyrimidine], the IC50 (usually the concentration needed to halve the response being measured) in test [1] was over 2 µM; in test [2], 0.5 to 2 µM; in test [3], over 2 µM.

Regarding `O=C(c1ccco1)N1CCN(c2ncnc3[nH]nc(Br)c23)CC1` [Entry 66, 3-bromo-4-[4-(furan-2-ylcarbonyl)piperazin-1-yl]-1H-pyrazolo[3,4-d]pyrimidine], the IC50 in test [1] is over 2 µM; in test [2], 0.5 to 2 µM; in test [3] it was over 2 µM.

As for `O=C(c1ccc2cc[nH]c2c1)N1CCN(c2ncnc3[nH]nc(Br)c23)CC1` [Entry 67, 3-bromo-4-[4-(1H-indol-6-ylcarbonyl)piperazin-1-yl]-1H-pyrazolo[3,4-d]pyrimidine], the IC50 is over 2 µM in test [1], 0.5 to 2 µM in test [2] and over 2 µM in test [3].

In the case of `Brc1n[nH]c2ncnc(N3CCN(CCc4cccs4)CC3)c12` [Entry 68, 3-bromo-4-{4-[2-(2-thienyl)ethyl]piperazin-1-yl}-1H-pyrazolo[3,4-d]pyrimidine], the values for the IC50 in test [1], in test [2] and in test [3] were over 2 µM, 0.5 to 2 µM and over 2 µM, respectively.

Take `Brc1n[nH]c2ncnc(N3CCN(CCCN4CCCC4)CC3)c12` [Entry 69, 3-bromo-4-[4-(3-pyrrolidin-1-ylpropyl)piperazin-1-yl]-1H-pyrazolo[3,4-d]pyrimidine]: the IC50 in test [1] is over 2 µM; in test [2] it was 0.5 to 2 µM; in test [3] it was over 2 µM.

`Brc1n[nH]c2ncnc(N3CCN(CC4CCCCC4)CC3)c12` [Entry 70, 3-bromo-4-[4-(cyclohexylmethyl)piperazin-1-yl]-1H-pyrazolo[3,4-d]pyrimidine]: the IC50 was over 2 µM in test [1], 0.5 to 2 µM in test [2] and over 2 µM in test [3].

Regarding `Clc1c2ccccc2c(CN2CCN(c3ncnc4[nH]nc(Br)c34)CC2)c2ccccc12` [Entry 71, 3-bromo-4-{4-[(10-chloroanthracen-9-yl)methyl]piperazin-1-yl}-1H-pyrazolo[3,4-d]pyrimidine], the IC50 was over 2 µM in test [1], 0.5 to 2 µM in test [2] and over 2 µM in test [3].

Consider `CCC(C)N1CCN(c2ncnc3[nH]nc(Br)c23)CC1` (stereo not drawn) [Entry 72, 3-bromo-4-[4-(1-methylpropyl)piperazin-1-yl]-1H-pyrazolo[3,4-d]pyrimidine], for which the IC50 in test [1] was over 2 µM; in test [2], 0.5 to 2 µM; in test [3], over 2 µM.

As to `COc1cc(OC)nc(CN2CCN(c3ncnc4[nH]nc(Br)c34)CC2)n1` [Entry 73, 4-(4-{[4,6-bis(methyloxy)pyrimidin-2-yl]methyl}piperazin-1-yl)-3-bromo-1H-pyrazolo[3,4-d]pyrimidine], the IC50 was over 2 µM in test [1], 0.5 to 2 µM in test [2] and over 2 µM in test [3].

`COCCN1CCN(c2ncnc3[nH]nc(Br)c23)CC1` [Entry 74, 3-bromo-4-{4-[2-(methyloxy)ethyl]piperazin-1-yl}-1H-pyrazolo[3,4-d]pyrimidine]: the IC50 in test [1] was over 2 µM; in test [2] it was 0.5 to 2 µM; in test [3], over 2 µM.

On to `O=C(CN1CCN(c2ncnc3[nH]nc(Br)c23)CC1)N1CCOCC1` [Entry 75, 3-bromo-4-[4-(2-morpholin-4-yl-2-oxoethyl)piperazin-1-yl]-1H-pyrazolo[3,4-d]pyrimidine], for which the IC50 in test [1], in test [2] and in test [3] was over 2 µM in each case.

For the compound `COCCCN1CCN(c2ncnc3[nH]nc(Br)c23)CC1` [Entry 76, 3-bromo-4-{4-[3-(methyloxy)propyl]piperazin-1-yl}-1H-pyrazolo[3,4-d]pyrimidine], the concentration for half-maximal inhibition (IC50) in test [1], in test [2] and in test [3] was over 2 µM each time.

`COc1cc(OC)nc(C(c2ccccc2)N2CCN(c3ncnc4[nH]nc(Br)c34)CC2)n1` (stereo not drawn) [Entry 77, 4-{4-[[4,6-bis(methyloxy)pyrimidin-2-yl](phenyl)methyl]piperazin-1-yl}-3-bromo-1H-pyrazolo[3,4-d]pyrimidine]: the IC50 in test [1], in test [2] and in test [3] was over 2 µM throughout.

As for `Brc1n[nH]c2ncnc(N3CCN(C4CCCCc5ccccc54)CC3)c12` (stereo not drawn) [Entry 78, 3-bromo-4-[4-(6,7,8,9-tetrahydro-5H-benzocyclohepten-5-yl)piperazin-1-yl]-1H-pyrazolo[3,4-d]pyrimidine], the IC50 in test [1], in test [2] and in test [3] was over 2 µM each time.

Consider `Brc1n[nH]c2ncnc(N3CCN(Cc4ccc(OCc5ccccc5)cc4)CC3)c12` [Entry 79, 3-bromo-4-[4-({4-[(phenylmethyl)oxy]phenyl}methyl)piperazin-1-yl]-1H-pyrazolo[3,4-d]pyrimidine], for which the IC50 in test [1], in test [2] and in test [3] was over 2 µM in each case.

Consider `CN(C)C(=O)CN1CCN(c2ncnc3[nH]nc(Br)c23)CC1` [Entry 85, 2-[4-(3-bromo-1H-pyrazolo[3,4-d]pyrimidin-4-yl)piperazin-1-yl]-N,N-dimethylacetamide], for which the IC50 in test [1], in test [2] and in test [3] was over 2 µM throughout.
